Data published in US9018388B2, “Pesticidal compositions and processes related thereto” (Dow AgroSciences LLC, priority 2012, dated 2015).

Columns and labels:
[1] = test system: Corn Earworm (CEW) (Helicoverpa zea); assay: Bioassay on corn earworm (CEW), 128-well diet tray assay; assay type: in vivo; conditions: Helicoverpa zea; Corn earworm, 50 μg/cm^2; read-out: % Mortality CEW 50 μg/cm^2
Experimental: (§1) Bioassays on Beet Armyworm (“BAW”) and Corn Earworm (“CEW”)
(§2) Certain molecules disclosed in this document were tested against BAW and CEW using procedures described in the following examples. In the reporting of the results, the “BAW & CEW Rating Table” was used (See Table Section).
Bioassays on CEW (Helicoverpa zea)
Bioassays on CEW were conducted using a 128-well diet tray assay. One to five second instar CEW larvae were placed in each well (3 mL) of the diet tray that had been previously filled with 1 mL of artificial diet to which 50 μg/cm^2 of the test compound (dissolved in 50 μL of 90:10 acetone-water mixture) had been applied (to each of eight wells) and then allowed to dry. Trays were covered with a clear self-adhesive cover and held at 25° C., 14:10 light-dark for five to seven days. Percent mortality was recorded for the larvae in each well; activity in the eight wells was then averaged. The results are indicated in the table entitled “Table 5: Biological Results” (See Table Section).

[2] = test system: Beet Armyworm (BAW) (Spodoptera exigua); assay: Bioassay on beet armyworm (BAW), 128-well diet tray assay; assay type: in vivo; conditions: Spodoptera exigua; Beet armyworm, 50 μg/cm^2; read-out: % Mortality BAW 50 μg/cm^2
Experimental: as §1, §2
Bioassays on BAW (Spodoptera exigua)
Bioassays on BAW were conducted using a 128-well diet tray assay. One to five second instar BAW larvae were placed in each well (3 mL) of the diet tray that had been previously filled with 1 mL of artificial diet to which 50 μg/cm^2 of the test compound (dissolved in 50 μL of 90:10 acetone-water mixture) had been applied (to each of eight wells) and then allowed to dry. Trays were covered with a clear self-adhesive cover and held at 25° C., 14:10 light-dark for five to seven days. Percent mortality was recorded for the larvae in each well; activity in the eight wells was then averaged. The results are indicated in the table entitled “Table 5: Biological Results” (See Table Section).

| SMILES | pest or weed control at 50 µg/cm2, 50 µg/cm2 [1] | pest or weed control at 50 µg/cm2, 50 µg/cm2 [2] |
| --- | --- | --- |
| Cc1cccc(C)c1/N=C(/N/N=C/c1ccc(-c2ncn(-c3ccc(OC(F)(F)F)cc3)n2)cc1)SCC(=O)N1CCNCC1 [Compound 67C] | 50 to 100% | 50 to 100% |
| COc1ccc(N2C(=O)CCS/C2=N\N=C\c2ccc(-c3ncn(-c4ccc(OC(F)(F)F)cc4)n3)cc2)c(C)c1 [Compound 231C] | 50 to 100% | 50 to 100% |
| CC(/N=C(/N/N=C/c1ccc(-c2ncn(-c3ccc(OC(F)(F)F)cc3)n2)cc1)SCC(=O)O)c1ccccc1 (centres unmarked) [Compound 54C] | 50 to 100% | 50 to 100% |
| O=C1CS/C(=N\N=C\c2ccc(-c3cn(-c4ccc(OC(F)(F)F)cc4)cn3)cc2)N1c1c(Cl)cccc1Cl [Compound 102C] | 50 to 100% | 50 to 100% |
| CC1CSC(=NN=Cc2ccc(-c3ncn(-c4ccc(OC(F)(F)F)cc4)n3)cc2)N(c2ccccc2C(C)C)C1 (stereo in doubt) [Compound 178C, (Z)-3-(2-isopropylphenyl)-5-methyl-2-((E)-(4-(1-(4-(trifluoromethoxy)phenyl)-1H-1,2,4-triazol-3-yl)benzylidene)hydrazono)-1,3-thiazinane] | 50 to 100% | 50 to 100% |
| COC(=O)C1CC(c2ccc(/C=N/N=C3\SCC(=O)N3c3c(Cl)cccc3Cl)cc2)=NN1c1ccc(OC(F)(F)F)cc1 (centres unmarked) [Compound 109C] | 50 to 100% | 50 to 100% |
| CC1S/C(=N\N=C\c2ccc(-c3ncn(-c4ccc(OC(F)(F)F)cc4)n3)cc2)N(c2ccccc2C2CC2)C1=O (centres unmarked) [Compound 127C] | 50 to 100% | 50 to 100% |
| Cc1cccnc1N1C(=O)CS/C1=N\N=C\c1ccc(-c2ncn(-c3ccc(OC(F)(F)F)cc3)n2)cc1 [Compound 117C] | 50 to 100% | 50 to 100% |
| FC(F)(F)Oc1ccc(-n2cnc(-c3ccc(/C=N/N=C4\SCN4c4c(Cl)cccc4Cl)cc3)n2)cc1 [Compound 244C] | 50 to 100% | 50 to 100% |
| Cc1cccc(C)c1N1C(=O)CS/C1=N\N=C\c1ccc(-c2cnn(-c3ccc(OC(F)(F)F)cc3)c2)cc1 [Compound 104C] | 50 to 100% | 50 to 100% |
| CC(C)Cc1ccccc1N1C(=O)CS/C1=N\N=C\c1ccc(-c2ncn(-c3ccc(OC(F)(F)F)cc3)n2)cc1 [Compound 119C] | 50 to 100% | 50 to 100% |
| FC(F)Oc1ccccc1N1CCCS/C1=N\N=C\c1ccc(-c2ncn(-c3ccc(OC(F)(F)F)cc3)n2)cc1 [Compound 200C] | 50 to 100% | 50 to 100% |
| CC(C)c1ccccc1N1CCCS/C1=N\N=C\c1ccc(-c2ncn(-c3ccc(OC(F)(F)F)cc3)n2)cc1 [Compound 177C] | 50 to 100% | 50 to 100% |
| Cc1cccc(C)c1/N=C(/N/N=C/c1ccc(-c2ncn(-c3ccc(OC(F)(F)F)cc3)n2)cc1)SCOC(=O)C(C)(C)C [Compound 36C] | 50 to 100% | 50 to 100% |
| Cc1cccc(Cl)c1N1C(=O)CS/C1=N\N=C\c1ccc(-c2ncn(-c3ccc(OC(F)(F)F)cc3)n2)cc1 [Compound 93C] | 50 to 100% | 50 to 100% |
| FC(F)(F)Oc1ccc(-n2cnc(-c3ccc(/C=N/N=C4\SCCN4c4ccccc4-c4ccccc4)cc3)n2)cc1 [Compound 144C] | 50 to 100% | 50 to 100% |
| Cc1cs/c(=N\N=C\c2ccc(-c3ncn(-c4ccc(OC(F)(F)F)cc4)n3)cc2)n1-c1c(Cl)cccc1C(F)(F)F [Compound 169C] | 50 to 100% | 50 to 100% |
| COc1ccc(N2/C(=N/N=C/c3ccc(-c4ncn(-c5ccc(OC(F)(F)F)cc5)n4)cc3)SCCC2C)c(C)c1 (centres unmarked) [Compound 219C] | 50 to 100% | 50 to 100% |
| Cc1cccc(C)c1/N=C(/N/N=C/c1ccc(-c2ncn(-c3ccc(OC(F)(F)F)cc3)n2)cc1)SCC(=O)NCCCN(C)C(=O)OC(C)(C)C [Compound 61C] | 50 to 100% | 50 to 100% |
| COc1ccc(N2CCS/C2=N\N=C\c2ccc(-c3ncn(-c4ccc(OC(F)(F)F)cc4)n3)cc2)c(C)c1 [Compound 137C] | 50 to 100% | 50 to 100% |

| SMILES | pest or weed control at 50 µg/cm2, 50 µg/cm2 [1] | pest or weed control at 50 µg/cm2, 50 µg/cm2 [2] |
| --- | --- | --- |
| Cc1ccccc1N1CCS/C1=N\N=C\c1ccc(-c2ncn(-c3ccc(OC(F)(F)F)cc3)n2)cc1 [Compound 141C] | 50 to 100% | 50 to 100% |
| Cc1cccc(C)c1/N=C(/N/N=C/c1ccc(-c2ncn(-c3ccc(OC(F)(F)F)cc3)n2)cc1)SCC(=O)NCC(N)C(=O)O (centres unmarked) [Compound 63C] | 50 to 100% | 50 to 100% |
| CC1CS/C(=N\N=C\c2ccc(-c3ncn(-c4ccc(OC(F)(F)F)cc4)n3)cc2)N1c1c(F)cccc1F (centres unmarked) [Compound 159C] | 50 to 100% | 50 to 100% |
| O=C1CS/C(=N\N=C\c2ccc(-c3ncn(-c4ccc(OC(F)(F)F)cc4)n3)cc2)N1c1ccccc1Cl [Compound 106C] | 50 to 100% | 50 to 100% |
| CCC1CS/C(=N\N=C\c2ccc(-c3ncn(-c4ccc(OC(F)(F)F)cc4)n3)cc2)N1c1c(C)cccc1Cl (centres unmarked) [Compound 167C] | 50 to 100% | 50 to 100% |
| O=C1CS/C(=N\N=C\c2ccc(-c3ncn(-c4ccc(OC(F)(F)F)cc4)n3)cc2)N1c1ccccc1OC(F)(F)F [Compound 124C] | 50 to 100% | 50 to 100% |
| COc1cc(C)c(-n2c(C(=O)O)cs/c2=N\N=C\c2ccc(-c3ncn(-c4ccc(OC(F)(F)F)cc4)n3)cc2)c(C)c1 [Compound 80C] | 50 to 100% | 50 to 100% |
| CCC(C)c1ccccc1N1CCCS/C1=N\N=C\c1ccc(-c2ncn(-c3ccc(OC(F)(F)F)cc3)n2)cc1 (centres unmarked) [Compound 183C] | 50 to 100% | 50 to 100% |
| CCC(C)c1ccccc1N1/C(=N/N=C/c2ccc(-c3ncn(-c4ccc(OC(F)(F)F)cc4)n3)cc2)SCC1C (centres unmarked) [Compound 163C] | 50 to 100% | 50 to 100% |
| CCC(C)c1ccccc1N1CCS/C1=N\N=C\c1ccc(-c2ncn(-c3ccc(OC(F)(F)F)cc3)n2)cc1 (centres unmarked) [Compound 135C] | 50 to 100% | 50 to 100% |
| COc1cc(C)c(/N=C(\N/N=C/c2ccc(-c3ncn(-c4ccc(C(F)(F)F)cc4)n3)cc2)SCOC(=O)CNC(=O)OCc2ccccc2)c(C)c1 [Compound 45C] | 50 to 100% | 50 to 100% |
| CCC(C)c1ccccc1N1/C(=N/N=C/c2ccc(-c3ncn(-c4ccc(OC(F)(F)F)cc4)n3)cc2)SCCC1C (centres unmarked) [Compound 220C] | 50 to 100% | 50 to 100% |
| CC(C)(C)c1ccccc1N1C(=O)CS/C1=N\N=C\c1ccc(-c2ncn(-c3ccc(OC(F)(F)F)cc3)n2)cc1 [Compound 125C] | 50 to 100% | 50 to 100% |
| CC(C)c1ccccc1N1/C(=N/N=C/c2ccc(-c3ncn(-c4ccc(OC(F)(F)F)cc4)n3)cc2)SCC1C (racemic) [Compound 155C] | 50 to 100% | 50 to 100% |
| CC1S/C(=N\N=C\c2ccc(-c3ncn(-c4ccc(OC(F)(F)F)cc4)n3)cc2)N(c2c(Cl)cccc2Cl)C1=O (centres unmarked) [Compound 129C] | 50 to 100% | 50 to 100% |
| Cc1cs/c(=N\N=C\c2ccc(-c3ncn(-c4ccc(OC(F)(F)F)cc4)n3)cc2)n1-c1c(F)cccc1F [Compound 171C] | 50 to 100% | 50 to 100% |
| COc1ccccc1N1CCCS/C1=N\N=C\c1ccc(-c2ncn(-c3ccc(OC(F)(F)F)cc3)n2)cc1 [Compound 191C] | 50 to 100% | 50 to 100% |
| COc1cc(C)c(/N=C(/N/N=C/c2ccc(-c3ncn(-c4ccc(OC(F)(F)F)cc4)n3)cc2)SCOC(=O)C2CCCO2)c(C)c1 (centres unmarked) [Compound 44C] | 50 to 100% | 50 to 100% |
| COc1cc(C)c(/N=C(/N/N=C/c2ccc(-c3ncn(-c4ccc(OC(F)(F)F)cc4)n3)cc2)SCC(=O)O)c(C)c1 [Compound 48C] | 50 to 100% | 50 to 100% |
| Cc1cccc(C)c1/N=C1\SCC(=O)N1/N=C/c1ccc(-c2ncn(-c3ccc(OC(F)(F)F)cc3)n2)cc1 [Compound 81C] | 50 to 100% | 50 to 100% |
